In ChEMBL document CHEMBL4043292, “Discovery and Optimization of Phosphopantetheine Adenylyltransferase Inhibitors with Gram-Negative Antibacterial Activity” (J Med Chem, 2018):
pIC50: −log10 of the molar value. In brackets after ≈: the same amount, converted by molar mass.

How the values were obtained:
Pseudomonas aeruginosa [1] = assay: microbe, parasite or virus in culture; settings: PAO1, 20 h
Description: Antibacterial activity against Pseudomonas aeruginosa PAO1 after 20 hrs by broth microdilution method

in vitro [2] = settings: human, not told
Description: Efflux ratio in human microsomes

physchem [3] = settings: PBS
Description: Solubility of the compound in PBS

in vitro [4] = settings: human, Caco-2
Description: Efflux ratio of apparent permeability across basolateral to apical over apical to basolateral side in human Caco2 cells

Escherichia coli [5] = assay: microbe, parasite or virus in culture; settings: JW0451-2, 20 h
Description: Antibacterial activity against acrB deficient Escherichia coli JW0451-2 after 20 hrs by broth microdilution method

Escherichia coli [6] = assay: microbe, parasite or virus in culture; settings: RFM795, 20 h
Description: Antibacterial activity Escherichia coli RFM795 harboring frame deletion of 23 amino acids in lptD gene after 20 hrs by broth microdilution method

Escherichia coli [7] = assay: microbe, parasite or virus in culture; settings: BW25113, 20 h
Description: Antibacterial activity against Escherichia coli BW25113 after 20 hrs by broth microdilution method

in vitro [8] = settings: human, Caco-2; remark: listed apart in the source
physchem [9] = settings: buffer, pH 7.4
Description: Lipophilicity, log D of the compound at pH 7.4

Pseudomonas aeruginosa [10] = assay: microbe, parasite or virus in culture; settings: K1119, 20 h
Description: Antibacterial activity against mexAB deficient Pseudomonas aeruginosa K1119 after 20 hrs by broth microdilution method

[11] = biological target: T1, Bifunctional coenzyme A synthase (Homo sapiens) (UniProt Q13057)
T1 sequence (whole entry): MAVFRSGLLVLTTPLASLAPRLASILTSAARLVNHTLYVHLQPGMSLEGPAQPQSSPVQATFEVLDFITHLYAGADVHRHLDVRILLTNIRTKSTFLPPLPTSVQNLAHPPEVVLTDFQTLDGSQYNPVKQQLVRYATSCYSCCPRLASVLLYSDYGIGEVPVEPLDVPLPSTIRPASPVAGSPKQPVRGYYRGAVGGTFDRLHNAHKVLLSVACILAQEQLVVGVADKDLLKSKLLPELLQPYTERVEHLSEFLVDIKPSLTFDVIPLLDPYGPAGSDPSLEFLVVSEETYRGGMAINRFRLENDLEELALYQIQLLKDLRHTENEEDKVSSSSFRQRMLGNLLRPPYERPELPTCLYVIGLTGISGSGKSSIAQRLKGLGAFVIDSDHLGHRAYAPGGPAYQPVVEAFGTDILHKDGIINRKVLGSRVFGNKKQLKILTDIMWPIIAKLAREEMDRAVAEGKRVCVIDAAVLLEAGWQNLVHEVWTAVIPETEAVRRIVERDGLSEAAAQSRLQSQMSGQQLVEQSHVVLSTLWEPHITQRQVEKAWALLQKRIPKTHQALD
Description: Inhibition of human coaSY expressed in tolC deficient Escherichia coli JWK0002 assessed as bacterial growth inhibition after 20 hrs by broth microdilution method

Escherichia coli [12] = assay: microbe, parasite or virus in culture; settings: JW5503-1, 20 h
Description: Antibacterial activity against tolC deficient Escherichia coli JW5503-1 after 20 hrs by broth microdilution method

[13] = Inhibition of PPAT in tolC deficient Escherichia coli JW5503-1 assessed as reduction in level of CoA-SH metabolite by mass spectrometric method
[14] = Inhibition of PPAT in Escherichia coli BW25113 assessed as reduction in level of CoA-SH metabolite by mass spectrometric method
Pseudomonas aeruginosa [15] = assay: microbe, parasite or virus in culture; settings: ATCC 35151, 20 h
Description: Antibacterial activity against Pseudomonas aeruginosa ATCC 35151 after 20 hrs by broth microdilution method

Escherichia coli [16] = assay: Ratio of IC50 for PPAT in Escherichia coli BW25113 assessed as reduction in level of CoA-SH metabolite to IC50 for PPAT in tolC deficient Escherichia coli JW5503-1 assessed as reduction in level of CoA-SH metabolite

Compound	MIC (Escherichia coli [7])	logD (physchem [9])	MIC (Escherichia coli [12])	also measured
COC(=O)N1CCC(Cc2cccc([C@@H](CC#N)Nc3nc4nc(C)ccc4[nH]3)c2)CC1	128 µg/mL (≈ 296 µM)	2.8	≤ 0.125 µg/mL	MIC (Pseudomonas aeruginosa [1]): > 128 µg/mL; efflux ratio (in vitro [2]): 0.77; solubility (physchem [3]): 158 µg/mL (≈ 365 µM); efflux ratio (in vitro [4]): 18; MIC (Escherichia coli [5]): 16 µg/mL (≈ 37 µM); MIC (Escherichia coli [6]): 2 µg/mL (≈ 4.62 µM); Papp A→B (in vitro [8]): 2.3 ×10⁻⁶ cm/s; MIC (Pseudomonas aeruginosa [10]): 32 µg/mL (≈ 74 µM); MIC [11]: 128 µg/mL (≈ 296 µM)
Cc1cc(NCCc2c(C)n[nH]c2C)n2nc(N[C@H](CC#N)c3cccc(Cl)c3)nc2n1	> 128 µg/mL	3.8	0.5 µg/mL (≈ 1.11 µM)	pIC50 [13]: 7.92; solubility (physchem [3]): 23.8 µg/mL (≈ 52.9 µM); pIC50 [14]: 4.13
Cc1cc(N2CCN(C)CC2)c2[nH]c(N[C@H](CC#N)c3cccc(Cl)c3)nc2n1	64 µg/mL (≈ 156 µM)		2 µg/mL (≈ 4.88 µM)	MIC (Pseudomonas aeruginosa [1]): > 128 µg/mL; MIC (Escherichia coli [5]): 8 µg/mL (≈ 19.5 µM); MIC (Escherichia coli [6]): 8 µg/mL (≈ 19.5 µM); MIC (Pseudomonas aeruginosa [10]): > 128 µg/mL; MIC (Pseudomonas aeruginosa [15]): 128 µg/mL (≈ 312 µM); MIC [11]: 128 µg/mL (≈ 312 µM)
CC(=O)N1CCc2cc(Nc3cc(C)nc4nc(N[C@H](CC#N)c5cccc(Cl)c5)nn34)ccc21	> 128 µg/mL	3.9	0.06 µg/mL (≈ 0.123 µM)	pIC50 [13]: > 8.22; solubility (physchem [3]): < 0.6 µg/mL; pIC50 [14]: 5.62
Cc1cc(N[C@H]2C[C@@H]2c2ccccc2)n2nc(N[C@H](C)c3cccc(Cl)c3)nc2n1	> 128 µg/mL	4.9	2 µg/mL (≈ 4.77 µM)	
COC(=O)N1CCC(S(=O)(=O)c2cccc([C@@H](CC#N)Nc3nc4nc(C)ccc4[nH]3)c2)CC1	> 128 µg/mL	1.9	2 µg/mL (≈ 4.14 µM)	
Cc1cc(N2CC(N(C)C)C2)n2nc(N[C@H](CC#N)c3cccc(Cl)c3)nc2n1	> 128 µg/mL	2.8	4 µg/mL (≈ 9.73 µM)	
COC(=O)N1CCC(Cc2cccc([C@@H](CC#N)Nc3nc4nc(C)ccc4[nH]3)c2)(C(=O)O)CC1	> 128 µg/mL	0.02	16 µg/mL (≈ 33.6 µM)	
Cc1cc(N2CCN(C)CC2)n2nc(N[C@H](CC#N)c3cccc(Cl)c3)nc2n1	> 128 µg/mL	2.4	4 µg/mL (≈ 9.73 µM)	pIC50 [13]: 7.01; solubility (physchem [3]): > 729 µg/mL; pIC50 [14]: 4.39
COC(=O)N1CC[C@H](Oc2cccc([C@@H](CC#N)Nc3nc4nc(C)ccc4[nH]3)c2)C1	> 128 µg/mL	2.7	4 µg/mL (≈ 9.51 µM)	
COC(=O)N1CCC(Oc2cccc([C@@H](CC#N)Nc3nc4nc(C)cc(N5CCN(C)CC5)c4[nH]3)c2)CC1	> 128 µg/mL		4 µg/mL (≈ 7.51 µM)	MIC (Pseudomonas aeruginosa [1]): > 128 µg/mL; efflux ratio (in vitro [2]): 0.56; MIC (Escherichia coli [5]): 64 µg/mL (≈ 120 µM); MIC (Escherichia coli [6]): 64 µg/mL (≈ 120 µM); MIC (Pseudomonas aeruginosa [10]): > 128 µg/mL; MIC (Pseudomonas aeruginosa [15]): > 128 µg/mL; MIC [11]: > 128 µg/mL
Cc1cc(NC[C@H](N)c2ccccc2)n2nc(N[C@H](CC#N)c3cccc(Cl)c3)nc2n1	> 128 µg/mL	3.2	8 µg/mL (≈ 17.9 µM)	
COC(=O)N1CCC(Oc2cccc([C@@H](CC#N)Nc3nc4[nH]c(C)cc(=O)n4n3)c2)CC1	> 128 µg/mL	0.64	8 µg/mL (≈ 17.7 µM)	pIC50 [13]: 6.35; pIC50 [14]: < 3.70
Cc1cc(NC[C@@H](O)c2ccccc2)n2nc(N[C@H](CC#N)c3cccc(Cl)c3)nc2n1	> 128 µg/mL	3.6	0.25 µg/mL (≈ 0.558 µM)	
COC(=O)N1CCC(Oc2cccc([C@@H](CC#N)Nc3nc4nc(C)ccc4[nH]3)c2)CC1	> 128 µg/mL	3	0.25 µg/mL (≈ 0.575 µM)	pIC50 [13]: 7.62; MIC (Pseudomonas aeruginosa [1]): > 128 µg/mL; efflux ratio (in vitro [2]): 0.44; solubility (physchem [3]): 264 µg/mL (≈ 608 µM); efflux ratio (in vitro [4]): 48; MIC (Escherichia coli [5]): 32 µg/mL (≈ 73.6 µM); pIC50 [14]: 4.92; Ratio IC50 (Escherichia coli [16]): 500; MIC (Escherichia coli [6]): 8 µg/mL (≈ 18.4 µM); Papp A→B (in vitro [8]): 1 ×10⁻⁶ cm/s; MIC (Pseudomonas aeruginosa [10]): 128 µg/mL (≈ 295 µM); MIC (Pseudomonas aeruginosa [15]): 128 µg/mL (≈ 295 µM); MIC [11]: > 128 µg/mL
COC(=O)N1CC[C@@H](Cc2cccc([C@@H](CC#N)Nc3nc4nc(C)ccc4[nH]3)c2)C1	> 128 µg/mL	3.1	1 µg/mL (≈ 2.39 µM)	
Cc1cc(NC[C@@H](N)c2ccccn2)n2nc(N[C@H](CC#N)c3cccc(Cl)c3)nc2n1	> 128 µg/mL	1.9	2 µg/mL (≈ 4.46 µM)	
COC(=O)N1CC[C@@H](Oc2cccc([C@@H](CC#N)Nc3nc4nc(C)ccc4[nH]3)c2)C1	> 128 µg/mL	2.8	> 128 µg/mL	
Cc1cc(NC[C@@H](N)c2ccccc2)n2nc(N[C@H](CC#N)c3cccc(Cl)c3)nc2n1	32 µg/mL (≈ 71.6 µM)	3.4	0.25 µg/mL (≈ 0.559 µM)	
Cc1cc(N2CCN(C)CC2)n2nc(N[C@H](C)c3cccc(Cl)c3)nc2n1	> 128 µg/mL	3.3	32 µg/mL (≈ 82.9 µM)	
CO/N=C/C1(Cc2cccc([C@@H](CC#N)Nc3nc4nc(C)ccc4[nH]3)c2)CCN(C(=O)OC)CC1	> 128 µg/mL	3.5	0.25 µg/mL (≈ 0.511 µM)	
Cc1cc(Nc2ccc3nc(C)sc3c2)n2nc(N[C@H](C)c3cccc(Cl)c3)nc2n1	> 128 µg/mL	4.4	1 µg/mL (≈ 2.22 µM)	
COC(=O)N1CCN(S(=O)(=O)c2cccc([C@@H](CC#N)Nc3nc4nc(C)ccc4[nH]3)c2)CC1	> 128 µg/mL	2	32 µg/mL (≈ 66.2 µM)	
Cc1cc(NC[C@@H](N)c2ccncc2)n2nc(N[C@H](CC#N)c3cccc(Cl)c3)nc2n1	> 128 µg/mL	2.2	4 µg/mL (≈ 8.93 µM)	
Cc1ccc2[nH]c(N[C@H](CC#N)c3cccc(Cl)c3)nc2n1	> 128 µg/mL		4 µg/mL (≈ 12.8 µM)	pIC50 [13]: 6.43; pIC50 [14]: 5.32; Ratio IC50 (Escherichia coli [16]): 13
Cc1cc(NCCc2ccccc2)n2nc(N[C@H](C)c3cccc(Cl)c3)nc2n1	> 128 µg/mL	> 4.8	4 µg/mL (≈ 9.83 µM)	
Cc1cc(NC[C@@H](N)c2ccccc2F)n2nc(N[C@H](CC#N)c3cccc(Cl)c3)nc2n1	64 µg/mL (≈ 138 µM)	3.2	0.125 µg/mL (≈ 0.269 µM)	
Cc1cc(=O)n2nc(N[C@H](CC#N)c3cccc(Cl)c3)nc2[nH]1	> 128 µg/mL		16 µg/mL (≈ 48.7 µM)	pIC50 [13]: 6.23; pIC50 [14]: < 3.70
Cc1cc(NCCc2c(C)n[nH]c2C)n2nc(N[C@H](C)c3cccc(Cl)c3)nc2n1	> 128 µg/mL	2.9	2 µg/mL (≈ 4.71 µM)	
